Measurements: patent publication US6043217A, “Amide derivative of amythiamicin” (Zaidan Hojin Biseibutsu Kagaku Kenyu Kai, priority 1996, dated 2000)

Experiments:
Assay type in all cases: cell-based
[1] = test system: Micrococcus luteus PIC 1001; experiment: MIC, standard serial dilution method; conditions: Muller-Hinton agar medium, 37° C.
[2] = test system: Staphylococcus aureus TY-0428; experiment: MIC, standard serial dilution method; conditions: Muller-Hinton agar medium, 37° C.
[3] = test system: Bacillus subtilis NRRL B-558; experiment: MIC, standard serial dilution method; conditions: Muller-Hinton agar medium, 37° C.
Candida albicans 3147 = experiment: MIC, standard serial dilution method; conditions: Muller-Hinton agar medium, 37° C.
[4] = test system: Mycobacterium smegmatis ATCC 607; experiment: MIC, standard serial dilution method; conditions: Muller-Hinton agar medium, 37° C.
[5] = test system: Klebsiella pneumonia PCI 602; experiment: MIC, standard serial dilution method; conditions: Klebsiella pneumonia PCI 602 (Table 2); Muller-Hinton agar medium, 37° C.
[6] = test system: Bacillus subtilis PCI 219; experiment: MIC, standard serial dilution method; conditions: Muller-Hinton agar medium, 37° C.
Escherichia coli BE 1186 = experiment: MIC, standard serial dilution method; conditions: Muller-Hinton agar medium, 37° C.
Escherichia coli K-12 = experiment: MIC, standard serial dilution method; conditions: Muller-Hinton agar medium, 37° C.
[7] = test system: Pseudomonas aeruginosa A3; experiment: MIC, standard serial dilution method; conditions: Muller-Hinton agar medium, 37° C.
[8] = test system: Shigella dysenteria JS 11910; experiment: MIC, standard serial dilution method; conditions: Muller-Hinton agar medium, 37° C.
[9] = test system: Staphylococcus aureus No. 17 (MRSA); experiment: MIC, standard serial dilution method; conditions: Muller-Hinton agar medium, 37° C.
Proteus vulgaris OX 19 = experiment: MIC, standard serial dilution method; conditions: Muller-Hinton agar medium, 37° C.
[10] = test system: Salmonella enteritidis 1891; experiment: MIC, standard serial dilution method; conditions: Muller-Hinton agar medium, 37° C.
[11] = test system: Pseudomonas aeruginosa GN315; experiment: MIC, standard serial dilution method; conditions: Muller-Hinton agar medium, 37° C.
Salmonella typhi T-63 = experiment: MIC, standard serial dilution method; conditions: Muller-Hinton agar medium, 37° C.
[12] = test system: Proteus mirabilis IFM OM-9; experiment: MIC, standard serial dilution method; conditions: Muller-Hinton agar medium, 37° C.
[13] = test system: Staphylococcus aureus No. 5 (MRSA); experiment: MIC, standard serial dilution method; conditions: Muller-Hinton agar medium, 37° C.
[14] = test system: Escherichia coli K-12 ML 1692; experiment: MIC, standard serial dilution method; conditions: Muller-Hinton agar medium, 37° C.
Experimental: (§1) The antibacterial activities of the amythiamicin amide derivative of the general formula (I) according to this invention are now concretely described. Compounds No. 1 to No. 11 according to this invention, which were respectively prepared in Examples 1 to 11 hereinafter given, were tested as the test compounds for their minimum inhibitory concentrations (MIC.) (μg/ml) against growth of a variety of test microorganisms by a standard serial dilution method. In the tests, the incubation medium used was Muller-Hinton agar medium and the incubation temperature was 37° C. The test results are shown as antibacterial spectra in the following Tables 2 and 3.

[15] = test system: Shigella clexnerl JS 11749; experiment: MIC, standard serial dilution method; conditions: Muller-Hinton agar medium, 37° C.
Experimental: as §1

Shigella sonnei JS 11746 = experiment: MIC, standard serial dilution method; conditions: Muller-Hinton agar medium, 37° C.
Experimental: as §1

Escherichia coli BEM 11 = experiment: MIC, standard serial dilution method; conditions: Muller-Hinton agar medium, 37° C.
[16] = test system: Bacillus cereus ATCC 10702; experiment: MIC, standard serial dilution method; conditions: Muller-Hinton agar medium, 37° C.
[17] = test system: Staphylococcus aureus MS 16526; experiment: MIC, standard serial dilution method; conditions: Muller-Hinton agar medium, 37° C.
[18] = test system: Micrococcus luteus FDA 16; experiment: MIC, standard serial dilution method; conditions: Muller-Hinton agar medium, 37° C.
[19] = test system: Staphylococcus aureus Smith; experiment: MIC, standard serial dilution method; conditions: Muller-Hinton agar medium, 37° C.
Escherichia coli NIHJ = experiment: MIC, standard serial dilution method; conditions: Muller-Hinton agar medium, 37° C.
[20] = test system: Staphylococcus aureus MS 9610; experiment: MIC, standard serial dilution method; conditions: Muller-Hinton agar medium, 37° C.
[21] = test system: Micrococcus luteus IFO 3333; experiment: MIC, standard serial dilution method; conditions: Muller-Hinton agar medium, 37° C.
[22] = test system: Providencia rettgeri GN 466; experiment: MIC, standard serial dilution method; conditions: Muller-Hinton agar medium, 37° C.
[23] = test system: Corynebacterium bovis 1810; experiment: MIC, standard serial dilution method; conditions: Muller-Hinton agar medium, 37° C.
[24] = test system: Staphylococcus aureus FDA 209P; experiment: MIC, standard serial dilution method; conditions: Muller-Hinton agar medium, 37° C.
Bacillus anthracis = conditions: Muller-Hinton agar medium, 37° C.
Serratia marcescens = experiment: MIC, standard serial dilution method; conditions: Muller-Hinton agar medium, 37° C.
[25] = test system: Escherichia coli BEM 1121; experiment: MIC, standard serial dilution method; conditions: Muller-Hinton agar medium, 37° C.
[26] = test system: Providencia rettgeri GN 311; experiment: MIC, standard serial dilution method; conditions: Muller-Hinton agar medium, 37° C.

Row | SMILES | Minimum growth inhibitory concentrations (MIC.) [1] | Minimum growth inhibitory concentrations (MIC.) [2] | Minimum growth inhibitory concentrations (MIC.) [3] | Minimum growth inhibitory concentrations (MIC.) (Candida albicans 3147) | Minimum growth inhibitory concentrations (MIC.) [4] | Minimum growth inhibitory concentrations (MIC.) [5] | Minimum growth inhibitory concentrations (MIC.) [6] | Minimum growth inhibitory concentrations (MIC.) (Escherichia coli BE 1186) | Minimum growth inhibitory concentrations (MIC.) (Escherichia coli K-12) | Minimum growth inhibitory concentrations (MIC.) [7] | Minimum growth inhibitory concentrations (MIC.) [8] | Minimum growth inhibitory concentrations (MIC.) [9] | Minimum growth inhibitory concentrations (MIC.) (Proteus vulgaris OX 19) | Minimum growth inhibitory concentrations (MIC.) [10] | Minimum growth inhibitory concentrations (MIC.) [11] | Minimum growth inhibitory concentrations (MIC.) (Salmonella typhi T-63) | Minimum growth inhibitory concentrations (MIC.) [12] | Minimum growth inhibitory concentrations (MIC.) [13] | Minimum growth inhibitory concentrations (MIC.) [14] | Minimum growth inhibitory concentrations (MIC.) [15] | other results
1 | CNC(=O)CC1NC(=O)c2csc(n2)-c2ccc(-c3nc(C(=O)NCCCN)cs3)nc2-c2csc(n2)-c2csc(n2)C(C(C)C)NC(=O)CNC(=O)c2csc(n2)C(C(C)C)NC(=O)c2nc1sc2C (stereo not drawn) [Compound No. 5] | 0.78 µg/mL | 3.12 µg/mL | 6.25 µg/mL | > 100 µg/mL | > 100 µg/mL | > 100 µg/mL | 3.12 µg/mL | > 100 µg/mL | > 100 µg/mL | > 100 µg/mL | > 100 µg/mL | 6.25 µg/mL | > 100 µg/mL | > 100 µg/mL | > 100 µg/mL | > 100 µg/mL | > 100 µg/mL | 6.25 µg/mL | > 100 µg/mL | > 100 µg/mL | Minimum growth inhibitory concentrations (MIC.) (Shigella sonnei JS 11746): > 100 µg/mL; Minimum growth inhibitory concentrations (MIC.) (Escherichia coli BEM 11): > 100 µg/mL; Minimum growth inhibitory concentrations (MIC.) [16]: 1.56 µg/mL; Minimum growth inhibitory concentrations (MIC.) [17]: 6.25 µg/mL; Minimum growth inhibitory concentrations (MIC.) [18]: 12.5 µg/mL; Minimum growth inhibitory concentrations (MIC.) [19]: 3.12 µg/mL; Minimum growth inhibitory concentrations (MIC.) (Escherichia coli NIHJ): > 100 µg/mL; Minimum growth inhibitory concentrations (MIC.) [20]: 3.12 µg/mL; Minimum growth inhibitory concentrations (MIC.) [21]: 3.12 µg/mL; Minimum growth inhibitory concentrations (MIC.) [22]: > 100 µg/mL; Minimum growth inhibitory concentrations (MIC.) [23]: > 100 µg/mL; Minimum growth inhibitory concentrations (MIC.) [24]: 0.78 µg/mL; Minimum growth inhibitory concentrations (MIC.) (Bacillus anthracis): 0.78 µg/mL; Minimum growth inhibitory concentrations (MIC.) (Serratia marcescens): > 100 µg/mL; Minimum growth inhibitory concentrations (MIC.) [25]: > 100 µg/mL; Minimum growth inhibitory concentrations (MIC.) [26]: > 100 µg/mL
2 | CCCCNCCCNCCCNC(=O)c1csc(-c2ccc3c(n2)-c2csc(n2)-c2csc(n2)C(C(C)C)NC(=O)CNC(=O)c2csc(n2)C(C(C)C)NC(=O)c2nc(sc2C)C(CC(=O)NC)NC(=O)c2csc-3n2)n1 (stereo not drawn) [Compound No. 6] | > 100 µg/mL | > 100 µg/mL | 25 µg/mL | > 100 µg/mL | > 100 µg/mL | > 100 µg/mL | > 100 µg/mL | > 100 µg/mL | > 100 µg/mL | > 100 µg/mL | > 100 µg/mL | > 100 µg/mL | > 100 µg/mL | > 100 µg/mL | > 100 µg/mL | > 100 µg/mL | > 100 µg/mL | > 100 µg/mL | > 100 µg/mL | > 100 µg/mL | Minimum growth inhibitory concentrations (MIC.) (Shigella sonnei JS 11746): > 100 µg/mL; Minimum growth inhibitory concentrations (MIC.) (Escherichia coli BEM 11): > 100 µg/mL; Minimum growth inhibitory concentrations (MIC.) [16]: > 100 µg/mL; Minimum growth inhibitory concentrations (MIC.) [17]: > 100 µg/mL; Minimum growth inhibitory concentrations (MIC.) [18]: > 100 µg/mL; Minimum growth inhibitory concentrations (MIC.) [19]: 25 µg/mL; Minimum growth inhibitory concentrations (MIC.) (Escherichia coli NIHJ): > 100 µg/mL; Minimum growth inhibitory concentrations (MIC.) [20]: > 100 µg/mL; Minimum growth inhibitory concentrations (MIC.) [21]: > 100 µg/mL; Minimum growth inhibitory concentrations (MIC.) [22]: > 100 µg/mL; Minimum growth inhibitory concentrations (MIC.) [23]: > 100 µg/mL; Minimum growth inhibitory concentrations (MIC.) [24]: 50 µg/mL; Minimum growth inhibitory concentrations (MIC.) (Bacillus anthracis): 25 µg/mL; Minimum growth inhibitory concentrations (MIC.) (Serratia marcescens): > 100 µg/mL; Minimum growth inhibitory concentrations (MIC.) [25]: > 100 µg/mL; Minimum growth inhibitory concentrations (MIC.) [26]: > 100 µg/mL
3 | CNC(=O)CC1NC(=O)c2csc(n2)-c2ccc(-c3nc(C(=O)NCCCN(C)CCCNCCc4ccc(Cl)cc4)cs3)nc2-c2csc(n2)-c2csc(n2)C(C(C)C)NC(=O)CNC(=O)c2csc(n2)C(C(C)C)NC(=O)c2nc1sc2C (stereo not drawn) [Compound No. 7] | 12.5 µg/mL | > 100 µg/mL | > 100 µg/mL | > 100 µg/mL | > 100 µg/mL | > 100 µg/mL | 50 µg/mL | > 100 µg/mL | > 100 µg/mL | > 100 µg/mL | > 100 µg/mL | > 100 µg/mL | > 100 µg/mL | > 100 µg/mL | > 100 µg/mL | > 100 µg/mL | > 100 µg/mL | > 100 µg/mL | > 100 µg/mL | > 100 µg/mL | Minimum growth inhibitory concentrations (MIC.) (Shigella sonnei JS 11746): > 100 µg/mL; Minimum growth inhibitory concentrations (MIC.) (Escherichia coli BEM 11): > 100 µg/mL; Minimum growth inhibitory concentrations (MIC.) [16]: > 100 µg/mL; Minimum growth inhibitory concentrations (MIC.) [17]: > 100 µg/mL; Minimum growth inhibitory concentrations (MIC.) [18]: 6.25 µg/mL; Minimum growth inhibitory concentrations (MIC.) [19]: > 100 µg/mL; Minimum growth inhibitory concentrations (MIC.) (Escherichia coli NIHJ): > 100 µg/mL; Minimum growth inhibitory concentrations (MIC.) [20]: > 100 µg/mL; Minimum growth inhibitory concentrations (MIC.) [21]: 12.5 µg/mL; Minimum growth inhibitory concentrations (MIC.) [22]: > 100 µg/mL; Minimum growth inhibitory concentrations (MIC.) [23]: 25 µg/mL; Minimum growth inhibitory concentrations (MIC.) [24]: > 100 µg/mL; Minimum growth inhibitory concentrations (MIC.) (Bacillus anthracis): > 100 µg/mL; Minimum growth inhibitory concentrations (MIC.) (Serratia marcescens): > 100 µg/mL; Minimum growth inhibitory concentrations (MIC.) [25]: > 100 µg/mL; Minimum growth inhibitory concentrations (MIC.) [26]: > 100 µg/mL
